Results: PMC7377239, “Cardiovascular Effects of Polychlorinated Biphenyls and Their Major Metabolites” (Environmental Health Perspectives, 2020)
Like-named read-outs stand apart in the source and are kept apart here.

How the values were obtained:
[1] = tested on: iCell cardiomyocytes (human iPSC-derived cardiomyocytes); experiment: High-content imaging of cytotoxicity and mitochondrial integrity in iPSC-CMs; format: cell-based; conditions: Homo sapiens, Cardiomyocyte, cardiomyocytes (cm)
Procedure, shortened: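 Readouts from high-content images were normalized to vehicle controls containing 0.5% vol/vol DMSO. They were fit to a four-parameter logistic model in R. Points of departure were set using a cutoff of one standard deviation across vehicle control means. Where no concentration–response was seen, the top tested concentration of 100μM was assigned as the no observable adverse effect level.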

HUVECs = experiment: High-content imaging cytotoxicity in HUVECs, 24 h; format: cell-based, human; conditions: Homo sapiens, HUVEC, 24 h, HUVEC, 24 hr
Procedure, shortened: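 HUVECs (passages 1–5) grown to monolayer over 3–5 d, then exposed 24 h at 37°C, 5% CO2; stained with Hoechst 33342, MitoTracker Orange and calcein AM and imaged at 10×. Readouts normalized to 0.5% DMSO vehicle, four-parameter logistic fit; POD at one-SD cutoff, 100μM assigned when no response.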

[2] = 1.5 h, cam, 90 min, read-out: POD cm.cam.90min
[3] = 1.5 h, mii, 90 min, read-out: POD cm.mii.90min
[4] = 1.5 h, mito, 90 min, read-out: POD cm.mito.90min
[5] = 1.5 h, tc, 90 min, read-out: POD cm.tc.90min
[6] = 24 h, cam, 24 hrs, read-out: POD cm.cam.24hrs
[7] = 24 h, mii, 24 hrs, read-out: POD cm.mii.24hrs
[8] = 24 h, mito, 24 hrs, read-out: POD cm.mito.24hrs
[9] = 24 h, tc, 24 hrs, read-out: POD cm.tc.24hrs
[10] = cyto, read-out: POD huvec.cyto.24hr
[11] = mito, read-out: POD huvec.mito.24hr
[12] = mitoint, read-out: POD huvec.mitoint.24hr
[13] = nma, read-out: POD huvec.nma.24hr
[14] = tc, read-out: POD huvec.tc.24hr

`Oc1ccc(-c2cccc(Cl)c2)cc1Cl` [4-OH-PCB 11] gave a minimal effective concentration [1, 2] of 27.7 µM, a minimal effective concentration [1, 3] of 32.7 µM and a minimal effective concentration [1, 4] of 40.1 µM. The minimal effective concentration [1, 5] was 36.2 µM, the minimal effective concentration [1, 6] was 8.57 µM and the minimal effective concentration [1, 7] was 43.2 µM. It also gave a minimal effective concentration [1, 8] of 7.94 µM, a minimal effective concentration [1, 9] of 8.62 µM and a minimal effective concentration (HUVECs; [10]) of 1.37 µM. The minimal effective concentration (HUVECs; [11]) was 1.2 µM, the minimal effective concentration (HUVECs; [12]) was 5.43 µM and the minimal effective concentration (HUVECs; [13]) was 0.99 µM. The minimal effective concentration (HUVECs; [14]) was 1.37 µM.
In the case of `COc1ccc(-c2cccc(Cl)c2)cc1Cl` [4-OMe-PCB 11, 4-methoxy-3,3′-dichlorobiphenyl], the minimal effective concentration [1, 2] is reported as 33.8 µM, the minimal effective concentration [1, 3] is reported as 62.2 µM and the minimal effective concentration [1, 4] is reported as 29.1 µM. It also gave a minimal effective concentration [1, 5] of 28.6 µM, a minimal effective concentration [1, 6] of 37.2 µM and a minimal effective concentration [1, 7] of 10.8 µM. The minimal effective concentration [1, 8] was 31.1 µM, the minimal effective concentration [1, 9] was 33.4 µM and the minimal effective concentration (HUVECs; [10]) was 7.59 µM. It also gave a minimal effective concentration (HUVECs; [11]) of 6.19 µM, a minimal effective concentration (HUVECs; [12]) of 16 µM and a minimal effective concentration (HUVECs; [13]) of 6.39 µM. The minimal effective concentration (HUVECs; [14]) was 7.59 µM.
